The subject of this experiment is BDF1 mice, P288 leukemia ip, survival T/C. The experiment in a line: NCI In Vivo Anticancer Drug Screen. Data for tumor model P288 Lymphocytic Leukemia (intraperitoneal) in B6D2F1 (BDF1) mice. The following applies: endpoint: survival time, mean or median, higher = longer survival. The procedure:
The antitumor activity of compounds was measured in mice bearing transplantable tumors. Survival or tumor size were measured and the results are expressed as the measurement made in the treated group (T) divided by the measurement made in the vehicle treated control group (C). The tumor model used in this assay is P288 Lymphocytic Leukemia (intraperitoneal) in B6D2F1 (BDF1) mice

The mark [1] stands for this setting: dose: 5.0 mg/kg/injection, schedule: Q01DX Z (ip), vehicle: carboxymethylcellulose (CMC).
[2] abbreviates: dose: 10.0 mg/kg/injection, schedule: Q01DX Z (ip), vehicle: carboxymethylcellulose (CMC).
Setting [3] is: dose: 20.0 mg/kg/injection, schedule: Q01DX Z (ip), vehicle: carboxymethylcellulose (CMC).
Where [4] appears, read: dose: 50.0 mg/kg/injection, schedule: Q01DX010 (ip), vehicle: saline.
Where [5] appears, read: dose: 100.0 mg/kg/injection, schedule: Q01DX010 (ip), vehicle: saline.
Setting [6] is: dose: 10.0 mg/kg/injection, schedule: Q01DX010 (ip), vehicle: saline.
[7] abbreviates: dose: 37.5 mg/kg/injection, schedule: Q01DX Z (ip), vehicle: carboxymethylcellulose (CMC).
Where [8] appears, read: dose: 75.0 mg/kg/injection, schedule: Q01DX Z (ip), vehicle: carboxymethylcellulose (CMC).

The structures appear in SMILES notation. Several values for one entry are separate records, joined by “and”; a condition that tells them apart may be missing. Equal entries are not always repeated. Inconclusive results and toxic doses are left out.

With `N#CCSc1ncnc2nc[nH]c12`, the T/C is 97 % of control (dose: 12.5 mg/kg/injection, schedule: Q01DX Z (ip), vehicle: carboxymethylcellulose (CMC)); 95 % of control (dose: 25.0 mg/kg/injection, schedule: Q01DX Z (ip), vehicle: carboxymethylcellulose (CMC)); 94 % of control (dose: 30.0 mg/kg/injection, schedule: Q01DX010 (ip), vehicle: saline); 114 % of control and 95 % of control (dose: 50.0 mg/kg/injection, schedule: Q01DX Z (ip), vehicle: carboxymethylcellulose (CMC)); 88 % of control (dose: 60.0 mg/kg/injection, schedule: Q01DX010 (ip), vehicle: saline); 100 % of control (dose: 120.0 mg/kg/injection, schedule: Q01DX010 (ip), vehicle: saline).
For the molecule `O=c1cn[nH]c(=O)[nH]1`, the T/C under setting [1] is 113 % of control; the T/C under setting [2] was 101 % of control; the T/C under setting [3] was 113 % of control; the T/C (dose: 125.0 mg/kg/injection, schedule: Q01DX Z (ip), vehicle: carboxymethylcellulose (CMC)) is 104 % of control; the T/C (dose: 250.0 mg/kg/injection, schedule: Q01DX Z (ip), vehicle: carboxymethylcellulose (CMC)) was 108 % of control and 93 % of control; the T/C (dose: 500.0 mg/kg/injection, schedule: Q01DX Z (ip), vehicle: carboxymethylcellulose (CMC)) was 106 % of control. Also, the T/C (dose: 1000.0 mg/kg/injection, schedule: Q01DX Z (ip), vehicle: carboxymethylcellulose (CMC)) is 118 % of control.
As for `COS(C)(=O)=O`, the T/C (dose: 12.5 mg/kg/injection, schedule: Q01DX010 (ip), vehicle: saline) is 100 % of control; the T/C (dose: 12.5 mg/kg/injection, schedule: Q01DX Z (ip), vehicle: water) was 109 % of control; the T/C (dose: 25.0 mg/kg/injection, schedule: Q01DX010 (ip), vehicle: saline) is 100 % of control; the T/C (dose: 25.0 mg/kg/injection, schedule: Q01DX Z (ip), vehicle: water) is 103 % of control; the T/C under setting [4] was 87 % of control; the T/C under setting [5] is 106 % of control. Moreover, the T/C (dose: 100.0 mg/kg/injection, schedule: Q01DX Z (ip), vehicle: water) is 97 % of control.
Regarding `OC(CBr)C(O)C(O)C(O)CBr` (centres undefined), the T/C is, setting by setting: under setting [4], 114 % of control and 94 % of control; under setting [5], 114 % of control and 94 % of control; (dose: 200.0 mg/kg/injection, schedule: Q01DX010 (ip), vehicle: saline) 114 % of control and 94 % of control; (dose: 400.0 mg/kg/injection, schedule: Q01DX010 (ip), vehicle: saline) 105 % of control and 114 % of control.
As for `CCN(CC)C(=S)S`, the T/C (dose: 125.0 mg/kg/injection, schedule: Q01DX Z (ip), vehicle: other) was 97 % of control; the T/C (dose: 250.0 mg/kg/injection, schedule: Q01DX Z (ip), vehicle: other) was 112 % of control; the T/C (dose: 500.0 mg/kg/injection, schedule: Q01DX Z (ip), vehicle: other) was 104 % of control; the T/C (dose: 1000.0 mg/kg/injection, schedule: Q01DX Z (ip), vehicle: other) is 104 % of control.
Take `Oc1cc(CN(CCCl)CCCl)c(O)cc1CN(CCCl)CCCl`: the T/C (dose: 0.63 mg/kg/injection, schedule: Q01DX010 (ip), vehicle: saline) was 100 % of control; the T/C (dose: 1.25 mg/kg/injection, schedule: Q01DX010 (ip), vehicle: saline) is 111 % of control and 100 % of control; the T/C (dose: 1.88 mg/kg/injection, schedule: Q01DX Z (sc), vehicle: steriod suspending solution) is 87 % of control; the T/C (dose: 2.5 mg/kg/injection, schedule: Q01DX010 (ip), vehicle: saline) is 105 % of control; the T/C (dose: 3.75 mg/kg/injection, schedule: Q01DX Z (sc), vehicle: steriod suspending solution) was 104 % of control; the T/C (dose: 5.0 mg/kg/injection, schedule: Q01DX010 (ip), vehicle: saline) was 105 % of control and 116 % of control. The T/C under setting [6] is 95 % of control.
Regarding `COc1cc(-c2ccc(Nc3ccccc3C(=O)O)c(OC)c2)ccc1N`, the T/C by setting is: under setting [6], 94 % of control; (dose: 20.0 mg/kg/injection, schedule: Q01DX010 (ip), vehicle: saline) 114 % of control and 100 % of control; (dose: 40.0 mg/kg/injection, schedule: Q01DX010 (ip), vehicle: saline) 200 % of control; (dose: 80.0 mg/kg/injection, schedule: Q01DX010 (ip), vehicle: saline) 200 % of control and 228 % of control.
`COC12C(COC(N)=O)C3=C(C(=O)C(C)=C(N)C3=O)N1CC1C2N1C` (centres undefined): the T/C reads like this: (dose: 0.31 mg/kg/injection, schedule: Q01DX Z (ip), vehicle: carboxymethylcellulose (CMC)) 110 % of control; (dose: 0.63 mg/kg/injection, schedule: Q01DX Z (ip), vehicle: carboxymethylcellulose (CMC)) 120 % of control; (dose: 1.25 mg/kg/injection, schedule: Q01DX Z (ip), vehicle: carboxymethylcellulose (CMC)) 114 % of control; under setting [1], 156 % of control; under setting [2], 167 % of control; under setting [3], 93 % of control.
On to `CCCCCCCCCCCCNCCCCCCCCCCCC`, for which the T/C was 108 % of control (dose: 7.5 mg/kg/injection, schedule: Q01DX Z (ip), vehicle: carboxymethylcellulose (CMC)); 106 % of control (dose: 15.0 mg/kg/injection, schedule: Q01DX Z (ip), vehicle: carboxymethylcellulose (CMC)); 110 % of control (dose: 30.0 mg/kg/injection, schedule: Q01DX Z (ip), vehicle: carboxymethylcellulose (CMC)); 116 % of control (dose: 60.0 mg/kg/injection, schedule: Q01DX Z (ip), vehicle: carboxymethylcellulose (CMC)).
Take `Cn1cnc([N+](=O)[O-])c1Sc1nc(N)nc2nc[nH]c12`: the T/C is 107 % of control (dose: 0.25 mg/kg/injection, schedule: Q01DX Z (ip), vehicle: carboxymethylcellulose (CMC)); 94 % of control (dose: 0.5 mg/kg/injection, schedule: Q01DX Z (ip), vehicle: carboxymethylcellulose (CMC)); 113 % of control (dose: 1.0 mg/kg/injection, schedule: Q01DX Z (ip), vehicle: carboxymethylcellulose (CMC)); 105 % of control (dose: 2.0 mg/kg/injection, schedule: Q01DX Z (ip), vehicle: carboxymethylcellulose (CMC)).
As for `O=C(Nc1ccc(C2=NCCN2)cc1)c1cccc(C(=O)Nc2ccc(C3=NCCN3)cc2)c1`, the T/C is, setting by setting: (dose: 2.4 mg/kg/injection, schedule: Q01DX Z (ip), vehicle: carboxymethylcellulose (CMC)) 101 % of control; (dose: 4.7 mg/kg/injection, schedule: Q01DX Z (ip), vehicle: carboxymethylcellulose (CMC)) 92 % of control; (dose: 9.4 mg/kg/injection, schedule: Q01DX Z (ip), vehicle: carboxymethylcellulose (CMC)) 105 % of control; (dose: 16.0 mg/kg/injection, schedule: Q01DX010 (ip), vehicle: saline) 211 % of control and 262 % of control; (dose: 18.8 mg/kg/injection, schedule: Q01DX Z (ip), vehicle: carboxymethylcellulose (CMC)) 161 % of control; (dose: 32.0 mg/kg/injection, schedule: Q01DX010 (ip), vehicle: saline) 255 % of control and 375 % of control. Besides, the T/C under setting [7] was 230 % of control; the T/C (dose: 64.0 mg/kg/injection, schedule: Q01DX010 (ip), vehicle: saline) is 333 % of control and 375 % of control; the T/C under setting [8] is 112 % of control; the T/C (dose: 128.0 mg/kg/injection, schedule: Q01DX010 (ip), vehicle: saline) is 268 % of control and 333 % of control.
On to `O=C1CCC(N2C(=O)c3ccccc3C2=O)C(=O)N1` (centres undefined), for which the T/C reads like this: (dose: 18.75 mg/kg/injection, schedule: Q01DX Z (ip), vehicle: carboxymethylcellulose (CMC)) 91 % of control; under setting [7], 94 % of control; under setting [8], 97 % of control; (dose: 150.0 mg/kg/injection, schedule: Q01DX Z (ip), vehicle: carboxymethylcellulose (CMC)) 101 % of control and 88 % of control; (dose: 300.0 mg/kg/injection, schedule: Q01DX Z (ip), vehicle: carboxymethylcellulose (CMC)) 94 % of control; (dose: 600.0 mg/kg/injection, schedule: Q01DX Z (ip), vehicle: carboxymethylcellulose (CMC)) 87 % of control.

The values are drawn from PubChem BioAssay AID216 (DTP/NCI, 2004).
